The source of these data is US20240018133A1, “MODULATORS OF THE INTEGRATED STRESS PATHWAY” (Calico Life Sciences LLC, priority 2019, published 2024).

Structures are written as SMILES. Where only a bound is given, the exact number is not on record here.

The experiment relates to ATF4 luciferase reporter (human full-length ATF4 5'-UTR fused to firefly luciferase) in HEK293T cells. Description: ATF4-Luc assay (in vitro model of VWMD): HEK293T cells carrying ATF4 luciferase reporter, tunicamycin-treated. The class given is cell-based. Particulars: Homo sapiens, HEK-293T, 1 μg/mL tunicamycin, 7 hours, One Glo luminescence. The essentials:
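Compound at 200 nM and tunicamycin at 1 μg/mL were given together for 7 h to HEK293T cells stably transduced with an ATF4 5′-UTR-driven firefly luciferase reporter. Read-out by luminescence, reported as EC50.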
On the technique in general: In a reporter assay the amount or activity of a reporter protein is the signal.
For `O=C(NC12CCC(NC(=O)C3CC(=O)c4cc(Cl)ccc4O3)(C1)C2)c1ccc(OC(F)(F)F)cn1` (centres unmarked) [Compound 311, N-{4-[(6-chloro-4-oxo-3,4-dihydro-2H-1-benzopyran-2-carbonyl)amino]bicyclo[2.1.1]hexan-1-yl}-5-(trifluoromethoxy)pyridine-2-carboxamide], the EC50 fell in the range of 0.05 to 0.25 µM.

In the case of `O=C(NC12CCC(NC(=O)C3CC(=O)c4cc(Cl)ccc4O3)(C1)C2)OCc1ccccc1` (centres unmarked) [Compound 312, benzyl {4-[(6-chloro-4-oxo-3,4-dihydro-2H-1-benzopyran-2-carbonyl)amino]bicyclo[2.1.1]hexan-1-yl}carbamate], the EC50 lay within 0.5 to 2 µM.

As for `O=C(COc1ccc(Cl)c(F)c1)NC12CC(NC(=O)c3cc(=O)c4ccc(F)cc4o3)(C1)C2` [Compound 313, N-{3-[2-(4-chloro-3-fluorophenoxy)acetamido]bicyclo[1.1.1]pentan-1-yl}-7-fluoro-4-oxo-4H-1-benzopyran-2-carboxamide], the EC50 lay in the range of 0.01 to 0.05 µM.

In the case of `CNC1CC(C(=O)NC23CC(NC(=O)COc4ccc(Cl)c(F)c4)(C2)C3)Oc2ccc(Cl)cc21` (centres unmarked) [Compound 314, 6-chloro-N-{3-[2-(4-chloro-3-fluorophenoxy)acetamido]bicyclo[1.1.1]pentan-1-yl}-4-(methylamino)-3,4-dihydro-2H-1-benzopyran-2-carboxamide], the concentration giving a half-maximal response (EC50) is < 0.01 µM.

`O=C(COc1ccc(Cl)c(F)c1)NC12CC(NC(=O)C3=CC(O)c4cc(Cl)ccc4O3)(C1)C2` (centres unmarked) [Compound 315, 6-chloro-N-{3-[2-(4-chloro-3-fluorophenoxy)acetamido]bicyclo[1.1.1]pentan-1-yl}-4-hydroxy-4H-1-benzopyran-2-carboxamide]: the EC50 was < 0.01 µM.

In the case of `O=C(COc1ccc(Cl)c(F)c1)NC12CC(NC(=O)[C@@H]3C[C@@H](N[C@H]4C[C@@H](O)C4)c4cc(Cl)ccc4O3)(C1)C2` [Compound 316, (2S,4R)-6-chloro-N-{3-[2-(4-chloro-3-fluorophenoxy)acetamido]bicyclo[1.1.1]pentan-1-yl}-4-{[(1s,3S)-3-hydroxycyclobutyl]amino}-3,4-dihydro-2H-1-benzopyran-2-carboxamide], the EC50 lay in the range of 0.05 to 0.25 µM.

On to `O=C(COc1ccc(Cl)c(F)c1)NC12CC(NC(=O)C3=Cc4ccc(Cl)cc4OC3)(C1)C2` [Compound 317, 7-chloro-N-{3-[2-(4-chloro-3-fluorophenoxy)acetamido]bicyclo[1.1.1]pentan-1-yl}-2H-1-benzopyran-3-carboxamide], for which the EC50 lay in the range of 0.01 to 0.05 µM.

For `O=C(COc1ccc(Cl)c(F)c1)NC12CC(NC(=O)c3cc(=O)c4cc(Cl)ccc4o3)(C1)C2` [Compound 318, 6-chloro-N-{3-[2-(4-chloro-3-fluorophenoxy)acetamido]bicyclo[1.1.1]pentan-1-yl}-4-oxo-4H-1-benzopyran-2-carboxamide], the EC50 was < 0.01 µM.

As for `O=C(COc1ccc(Cl)c(F)c1)NC12CC(NC(=O)[C@@H]3C[C@H](NCC(F)(F)F)c4cc(Cl)ccc4O3)(C1)C2` [Compound 319, (2S,4S)-6-chloro-N-{3-[2-(4-chloro-3-fluorophenoxy)acetamido]bicyclo[1.1.1]pentan-1-yl}-4-[(2,2,2-trifluoroethyl)amino]-3,4-dihydro-2H-1-benzopyran-2-carboxamide], the EC50 is 0.05 to 0.25 µM.

`C[C@@]1(C(=O)NC23CC(NC(=O)COc4ccc(Cl)c(F)c4)(C2)C3)Oc2ccc(Cl)cc2C1=O` [Compound 320, (2R)-5-chloro-N-{3-[2-(4-chloro-3-fluorophenoxy)acetamido]bicyclo[1.1.1]pentan-1-yl}-2-methyl-3-oxo-2,3-dihydro-1-benzofuran-2-carboxamide]: the EC50 was 0.5 to 2 µM.

Consider `O=C(COc1ccc(F)c(F)c1)NC12CC(NC(=O)[C@@H]3CC(=O)c4cc(F)c(F)cc4O3)(C1)C2` [Compound 321, (2S)—N-{3-[2-(3,4-difluorophenoxy)acetamido]bicyclo[1.1.1]pentan-1-yl}-6,7-difluoro-4-oxo-3,4-dihydro-2H-1-benzopyran-2-carboxamide], for which the EC50 lay in the range of 0.05 to 0.25 µM.

As to `COc1ccc2oc(C(=O)NC34CC(NC(=O)COc5ccc(Cl)c(F)c5)(C3)C4)cc(=O)c2n1` [Compound 322, N-{3-[2-(4-chloro-3-fluorophenoxy)acetamido]bicyclo[1.1.1]pentan-1-yl}-6-methoxy-4-oxo-4H-pyrano[3,2-b]pyridine-2-carboxamide], the EC50 was in the range of 0.05 to 0.25 µM.

Consider `O=C(COc1ccc(Cl)c(F)c1)NC12CC(NC(=O)[C@@H]3C[C@@H](NCC(F)(F)F)c4cc(Cl)ccc4O3)(C1)C2` [Compound 323, (2S,4R)-6-chloro-N-{3-[2-(4-chloro-3-fluorophenoxy)acetamido]bicyclo[1.1.1]pentan-1-yl}-4-[(2,2,2-trifluoroethyl)amino]-3,4-dihydro-2H-1-benzopyran-2-carboxamide], for which the EC50 fell in the range of 0.05 to 0.25 µM.

As for `CN(C(=O)c1cc(=O)c2cc(Cl)ccc2o1)C12CC(NC(=O)COc3ccc(Cl)c(F)c3)(C1)C2` [Compound 324, 6-chloro-N-{3-[2-(4-chloro-3-fluorophenoxy)acetamido]bicyclo[1.1.1]pentan-1-yl}-N-methyl-4-oxo-4H-1-benzopyran-2-carboxamide], the EC50 is 0.25 to 0.5 µM.

Turning to `O=C(COc1ccc(Cl)c(F)c1)NC12CC(NC(=O)[C@H]3CN(CC4(O)CC4)c4cc(Cl)ccc4O3)(C1)C2` [Compound 325, (2R)-6-chloro-N-{3-[2-(4-chloro-3-fluorophenoxy)acetamido]bicyclo[1.1.1]pentan-1-yl}-4-[(1-hydroxycyclopropyl)methyl]-3,4-dihydro-2H-1,4-benzoxazine-2-carboxamide], the EC50 fell in the range of 0.01 to 0.05 µM.

Take `O=C(COc1ccc(Cl)c(F)c1)NC12CCC(NC(=O)C3CC(=O)c4cc(Cl)ccc4O3)(CC1)CC2` (centres unmarked) [Compound 326, 6-chloro-N-{4-[2-(4-chloro-3-fluorophenoxy)acetamido]bicyclo[2.2.2]octan-1-yl}-4-oxo-3,4-dihydro-2H-1-benzopyran-2-carboxamide]: the EC50 fell in the range of 0.01 to 0.05 µM.

With `O=C(COc1ccc(Cl)c(F)c1)NC12CC(NC(=O)[C@H]3C[C@H](NCC(F)(F)F)c4cc(Cl)ccc4O3)(C1)C2` [Compound 327, (2R,4S)-6-chloro-N-{3-[2-(4-chloro-3-fluorophenoxy)acetamido]bicyclo[1.1.1]pentan-1-yl}-4-[(2,2,2-trifluoroethyl)amino]-3,4-dihydro-2H-1-benzopyran-2-carboxamide], the EC50 was in the range of 0.05 to 0.25 µM.

In the case of `O=C(COc1ccc(Cl)c(F)c1)NC12CC(NC(=O)[C@H]3C[C@@H](N[C@H]4C[C@@H](O)C4)c4cc(Cl)ccc4O3)(C1)C2` [Compound 328, (2R,4R)-6-chloro-N-{3-[2-(4-chloro-3-fluorophenoxy)acetamido]bicyclo[1.1.1]pentan-1-yl}-4-{[(1s,3S)-3-hydroxycyclobutyl]amino}-3,4-dihydro-2H-1-benzopyran-2-carboxamide], the EC50 is 0.05 to 0.25 µM.

For `O=C(COc1cnc(C(F)(F)F)nc1)NC12CC(NC(=O)[C@H]3CC(=O)c4cc(Cl)ccc4O3)(C1)C2` [Compound 329, (2R)-6-chloro-4-oxo-N-[3-(2-{[2-(trifluoromethyl)pyrimidin-5-yl]oxy}acetamido)bicyclo[1.1.1]pentan-1-yl]-3,4-dihydro-2H-1-benzopyran-2-carboxamide], the EC50 is 0.05 to 0.25 µM.

On to `COC1CC(C(=O)NC23CC(NC(=O)COc4ccc(Cl)c(F)c4)(C2)C3)Oc2ccc(F)cc21` (centres unmarked) [Compound 330, N-{3-[2-(4-chloro-3-fluorophenoxy)acetamido]bicyclo[1.1.1]pentan-1-yl}-6-fluoro-4-methoxy-3,4-dihydro-2H-1-benzopyran-2-carboxamide], for which the EC50 lay within 0.05 to 0.25 µM.

Consider `O=C(COc1ccc(Cl)cn1)NC12CC(NC(=O)[C@H]3CC(=O)c4cc(Cl)ccc4O3)(C1)C2` [Compound 331, (2R)-6-chloro-N-(3-{2-[(5-chloropyridin-2-yl)oxy]acetamido}bicyclo[1.1.1]pentan-1-yl)-4-oxo-3,4-dihydro-2H-1-benzopyran-2-carboxamide], for which the EC50 fell in the range of 0.05 to 0.25 µM.

Regarding `O=C(COc1ccc(Cl)c(F)c1)NC12CC(NC(=O)C3CC(=O)c4cc(F)ccc4O3)(C1)C2` (centres unmarked) [Compound 332, N-{3-[2-(4-chloro-3-fluorophenoxy)acetamido]bicyclo[1.1.1]pentan-1-yl}-6-fluoro-4-oxo-3,4-dihydro-2H-1-benzopyran-2-carboxamide], the EC50 is < 0.01 µM.

Consider `COc1ncc(OCC(=O)NC23CC(NC(=O)[C@H]4CC(=O)c5cc(Cl)ccc5O4)(C2)C3)cn1` [Compound 333, (2R)-6-chloro-N-(3-{2-[(2-methoxypyrimidin-5-yl)oxy]acetamido}bicyclo[1.1.1]pentan-1-yl)-4-oxo-3,4-dihydro-2H-1-benzopyran-2-carboxamide], for which the EC50 lay within 0.25 to 0.5 µM.

As to `O=C(COc1ccc(C(F)(F)F)nc1)NC12CC(NC(=O)[C@@H]3CC(=O)c4cc(Cl)ccc4O3)(C1)C2` [Compound 335, (2S)-6-chloro-4-oxo-N-[3-(2-{[6-(trifluoromethyl)pyridin-3-yl]oxy}acetamido)bicyclo[1.1.1]pentan-1-yl]-3,4-dihydro-2H-1-benzopyran-2-carboxamide], the EC50 was in the range of 0.05 to 0.25 µM.

Take `O=C(COc1ccc(Cl)c(F)c1)NC12CC(NC(=O)C3CC(NCC(F)(F)F)c4cc(Cl)ccc4O3)(C1)C2` (centres unmarked) [Compound 336, 6-chloro-N-{3-[2-(4-chloro-3-fluorophenoxy)acetamido]bicyclo[1.1.1]pentan-1-yl}-4-[(2,2,2-trifluoroethyl)amino]-3,4-dihydro-2H-1-benzopyran-2-carboxamide]: the EC50 fell in the range of 0.25 to 0.5 µM.

Take `O=C(COc1ccc(Cl)c(F)c1)NC12CCC(NC(=O)C3CC(O)c4cc(Cl)ccc4O3)(CC1)CC2` (centres unmarked) [Compound 337, 6-chloro-N-{4-[2-(4-chloro-3-fluorophenoxy)acetamido]bicyclo[2.2.2]octan-1-yl}-4-hydroxy-3,4-dihydro-2H-1-benzopyran-2-carboxamide]: the EC50 was < 0.01 µM.

What is called EC50 is the concentration needed to bring the measured effect to its halfway point.
